Target: T1, recombinant human liver GK (Homo sapiens, UniProt P35557)
T1 construct: made in house; host or cells: E. coli
T1 sequence (P35557 1-466 isoform P35557-2): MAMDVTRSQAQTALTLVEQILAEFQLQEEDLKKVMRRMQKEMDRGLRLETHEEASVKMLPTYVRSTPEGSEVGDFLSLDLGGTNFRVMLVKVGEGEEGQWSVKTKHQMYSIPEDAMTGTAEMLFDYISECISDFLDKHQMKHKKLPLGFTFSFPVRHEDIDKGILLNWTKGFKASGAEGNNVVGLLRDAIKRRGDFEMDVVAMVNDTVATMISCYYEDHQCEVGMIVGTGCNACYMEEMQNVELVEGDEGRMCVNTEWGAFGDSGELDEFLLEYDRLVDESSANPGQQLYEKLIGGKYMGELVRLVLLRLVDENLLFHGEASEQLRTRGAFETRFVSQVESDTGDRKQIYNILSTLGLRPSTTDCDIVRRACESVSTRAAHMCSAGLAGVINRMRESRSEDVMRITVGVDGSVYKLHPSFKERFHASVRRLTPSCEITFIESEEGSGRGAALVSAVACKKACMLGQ
Assay: Glucokinase (GK) activation assay: Thio-NADH formation coupled with G6PDH, absorbance at 405 nm
Format: biochemical
Conditions: final glucose concentration 2.5 mM, 30° C.; for Emax: OD level of DMSO control set as 100%
Description: The glucokinase activity may be determined not by directly measuring glucose-6-phosphate but by measuring the level of Thio-NADH, which is produced when a reporter enzyme, glucose-6-phosphate dehydrogenase produces phosphogluconolactone from glucose-6-phosphate, and based on the level, the degree of glucokinase activity of the compound tested may be determined.
In this assay, used was a recombinant human liver GK, which was expressed by E. coli as a FLAG fusion protein therein and was purified by […] M2 AFFINITY GEL (Sigma).
Using a 96-well plate, the assay was carried out at 30° C. 69 μl of an assay buffer (25 mM Hepes Buffer/pH=7.2, 2 mM MgCl2, 1 mM ATP, 0.5 mM TNAD, 1 mM dithiothreitol) was put into the plate, and 1 μl of a DMSO solution of the compound or DMSO alone as a control was added thereto. Next, 20 μl of an enzyme mixture (FLAG-GK, 20 U/ml G6PDH) cooled in ice was added to it, and 10 μl of a substrate, 25 mM glucose was added to it, and the reaction was initiated (final glucose concentration=2.5 mM).
After the start of the reaction, the increase in the absorbance at 405 nm was measured for 10 minutes at intervals of 30 seconds, and the increase for the first 5 minutes was used for evaluating the compound tested. FLAG-GK was added so that the absorbance increase after 5 minutes in the presence of 1% DMSO could be from 0.05 to 1.0.
The OD level of the DMSO control was set as 100%; and the OD level of the test compound at different concentrations was determined. From the OD level at each concentration, Emax (%) and EC50 (μM) were computed and used as the index of the GK-activating potency of the compound.

Structure (SMILES)	Emax [%]	EC50 [nM]
CC(=O)c1ccccc1Oc1cc2nc(-c3ccccn3)[nH]c2cc1Oc1ccc(C(=O)N(C)C)cc1 [Example 26, 5-(2-Acetyl-phenoxy)-6-(4-dimethylcarbamoyl-phenoxy)-2-pyridin-2-yl-1H-benzimidazole]	768	2300
COc1ccccc1Oc1cc(Oc2cccnc2)cc2[nH]c(-c3ccccn3)nc12 [Example 67, 4-(2-Methoxy-phenoxy)-2-pyridin-2-yl-6-(pyridin-3-yloxy)-1H-benzimidazole]	832	1400
